Laboratory results reported in patent US20030220310A1, “Epoxy-steroidal aldosterone antagonist and calcium channel blocker combination therapy for treatment of congestive heart failure” (priority 2003, published 2003).

What was measured:
[1] = Thermogravimetric analysis of solvates (desolvation); format: physicochemical; settings: eplerenone crystalline solvate; extrapolated from final solvent weight loss step, TGA, 10° C./minute, nitrogen purge
Protocol: Thermogravimetric analysis of solvates was performed using a TA Instruments TGA 2950 thermogravimetric analyzer. Samples were placed in an unsealed aluminum pan under nitrogen purge. Starting temperature was 25° C. with the temperature increased at a rate of about 10° C./minute.

[2] = Single crystal X-ray structure, unit cell parameters; format: physicochemical; settings: for Isostructural to Methyl Ethyl ketone Solvate?: eplerenone crystalline solvate; for R: crystal structure determination; for Volume / ρ (calculated): unit cell; for Z / a / b / c / α / β / γ: unit cell parameter
Excerpt: Tables 8, 9 and 10 below summarize the unit cell parameters determined for Form H, Form L, and several solvated crystalline forms. […]

[3] = tested on: myocardial fibrosis in animal models; settings: cited from earlier work

Desolvation Temperature [1] [°C] | Isostructural to Methyl Ethyl ketone Solvate? [2] | Compound | also measured
– | – | CC(=O)S[C@@H]1CC2=CC(=O)CC[C@]2(C)[C@H]2CC[C@@]3(C)[C@@H](CC[C@@]34CCC(=O)O4)[C@H]12 [spironolactone] | myocardial fibrosis [3]: prevents myocardial fibrosis
– | Yes | CCCO [n-Propanol] | –
122 | Yes | CCOC(=O)CC [Ethyl Propionate] | –
188 | Yes | CC(O)CO (stereo not drawn) [Propylene Glycol] | –
130 | Yes | CCCOC(C)=O [Propyl Acetate] | –
112 | Yes | CC(=O)OCC(C)C [Isobutyl Acetate] | –
103 | Yes | CCCCO [n-Butanol] | –
121 | Yes | CC(C)O [Isopropanol] | –
103 | Yes | COC(C)=O [Methyl Acetate] | –
– | – | COC(=O)[C@@H]1CC23O[C@@H]2C(=O)CC[C@]3(C)[C@@]23OC2C[C@@]2(C)C(CCC24CCC(=O)O4)C13 (stereo partly drawn) [diepoxide, 7-methyl hydrogen 4α,5α:9α,11α-diepoxy-17-hydroxy-3-oxo-17α-pregnane-7α,21-dicarboxylate, γ-lactone] | R [2]: 0.0762; Volume [2]: 2119.0 Å; ρ (calculated) [2]: 1.349 g/mL; Z [2]: 4; a [2]: 21.328 Å Å; b [2]: 16.16 Å Å; c [2]: 6.15 Å Å; α [2]: 90°; β [2]: 90°; γ [2]: 90°
– | Yes | CC(=O)O [Acetic Acid] | –
166 | Yes | CCO [Ethanol] | –
– | – | COC(=O)[C@@H]1CC2=CC(=O)CC[C@]2(C)C2=CC[C@@]3(C)C(CCC34CCC(=O)O4)C21 (stereo partly drawn) [9,11 olefin] | R [2]: 0.0764; Volume [2]: 2069.3 Å; ρ (calculated) [2]: 1.279 g/mL; Z [2]: 4; a [2]: 20.90 Å Å; b [2]: 15.74 Å Å; c [2]: 6.29 Å Å; α [2]: 90°; β [2]: 90°; γ [2]: 90°
116 | Yes | CCCCCCCCO [n-Octanol] | –

Compound | Desolvation Temperature [1] [°C] | Isostructural to Methyl Ethyl ketone Solvate? [2] | also measured
Cc1ccccc1 [Toluene] | 83 | Yes | –
C1CCOC1 [Tetrahydrofuran] | 136 | Yes | –
CCCCOC(C)=O [Butyl Acetate] | 108 | Yes | –
CCC(C)=O [Methyl Ethyl Ketone] | 89 | – | –
CC(=O)OC(C)(C)C [t-Butyl Acetate] | 109 | Yes | –
ClC(Cl)Cl [Chloroform] | 125 | Yes | –
CC(C)=O [Acetone] | 117 | Yes | –
